These results are taken from ChEMBL document CHEMBL1128035, “Structural optimization of alkyl-substituted 2-(7-5H-[1]benzopyrano[2,3-b]pyridyl)propionic acid as anti-inflammatory agents” (Bioorg Med Chem Lett, 1995).

What is called IC50 is the midpoint of a concentration-inhibition curve. For orientation: logD means the decadic logarithm of the distribution of all forms, ionised or not, between an organic phase and buffer at a given pH. A low value points to a more hydrophilic compound.

Series [1] addresses T1, Prostaglandin G/H synthase 1 (Ovis aries, UniProt P05979).
T1 sequence (P05979 whole entry): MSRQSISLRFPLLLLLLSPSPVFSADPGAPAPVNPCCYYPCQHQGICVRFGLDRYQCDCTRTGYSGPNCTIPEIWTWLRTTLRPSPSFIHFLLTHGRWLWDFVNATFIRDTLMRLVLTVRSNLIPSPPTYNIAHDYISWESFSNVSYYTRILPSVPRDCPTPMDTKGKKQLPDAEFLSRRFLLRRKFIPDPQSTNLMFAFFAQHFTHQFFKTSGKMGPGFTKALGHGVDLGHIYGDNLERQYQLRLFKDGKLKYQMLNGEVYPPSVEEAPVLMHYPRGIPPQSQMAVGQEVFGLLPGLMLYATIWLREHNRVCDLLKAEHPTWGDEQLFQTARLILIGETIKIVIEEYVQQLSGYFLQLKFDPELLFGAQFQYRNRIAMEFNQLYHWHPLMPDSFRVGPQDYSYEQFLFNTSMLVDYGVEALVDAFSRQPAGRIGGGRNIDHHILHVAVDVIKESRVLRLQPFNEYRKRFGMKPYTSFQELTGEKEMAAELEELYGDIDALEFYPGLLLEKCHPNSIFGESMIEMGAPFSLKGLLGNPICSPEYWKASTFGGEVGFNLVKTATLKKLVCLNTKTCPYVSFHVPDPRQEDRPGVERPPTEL
Briefly: Inhibitory activity against COX-1 from ram seminal vesicles.

Series [2] is described as follows: Partition coefficient measured in n-octanol/ pH 7.4 phosphate buffer. The series is classed as physicochemical.
Series [3] has as its target T2, Prostaglandin G/H synthase 1 (Rattus norvegicus, UniProt Q63921).
T2 sequence (Q63921 whole entry): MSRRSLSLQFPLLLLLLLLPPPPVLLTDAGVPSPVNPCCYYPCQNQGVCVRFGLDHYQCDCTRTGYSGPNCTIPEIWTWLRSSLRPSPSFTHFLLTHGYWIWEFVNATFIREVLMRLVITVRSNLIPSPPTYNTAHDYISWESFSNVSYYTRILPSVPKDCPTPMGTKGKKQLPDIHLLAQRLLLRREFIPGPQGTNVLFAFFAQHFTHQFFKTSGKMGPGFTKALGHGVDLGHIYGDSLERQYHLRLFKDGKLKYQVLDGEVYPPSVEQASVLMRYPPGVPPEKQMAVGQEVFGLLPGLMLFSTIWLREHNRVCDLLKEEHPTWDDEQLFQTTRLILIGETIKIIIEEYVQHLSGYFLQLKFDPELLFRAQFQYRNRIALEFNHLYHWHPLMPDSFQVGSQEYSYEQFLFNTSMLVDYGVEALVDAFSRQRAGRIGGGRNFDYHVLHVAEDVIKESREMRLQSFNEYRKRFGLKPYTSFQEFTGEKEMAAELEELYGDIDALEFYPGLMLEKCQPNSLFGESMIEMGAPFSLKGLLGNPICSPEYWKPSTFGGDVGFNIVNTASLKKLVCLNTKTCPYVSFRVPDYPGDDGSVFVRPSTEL
Briefly: Inhibitory activity against COX-1 from rat peritoneal leukocytes, measured by PGE-2 produced (enzyme immunoassay).

Compound `CC(C)c1ccc2c(n1)Oc1ccc(C(C)C(=O)O)cc1C2` (configuration not stated) came in with an IC50 in series [1] of more than 100000 nM. Also, the logD in series [2] was 0.67.

Regarding `Cc1ccnc2c1Cc1cc(C(C)C(=O)O)ccc1O2` (configuration not stated), in series [1], the IC50 was more than 100000 nM. The same compound came in with a logD in series [2] of -0.17.

`Cc1cnc2c(c1)Cc1cc(C(C)C(=O)O)ccc1O2` (configuration not stated) showed an IC50 in series [1] of 11000 nM. Further, the pH-dependent lipophilicity (logD) in series [2] came to 0.03.

In the case of `CCc1ccc2c(n1)Oc1ccc(C(C)C(=O)O)cc1C2` (configuration not stated), the IC50 came out at 850 nM in series [1] and 110 nM in series [3]. The logD in series [2] was 0.45.

In the case of `Cc1ccc2c(n1)Oc1ccc(C(C)C(=O)O)cc1C2` (configuration not stated), the figures for the half-maximal inhibitory concentration (IC50) in series [1] and in series [3] were 320 nM and 30 nM, respectively. Besides, in series [2], the logD was -0.11.

In series [1], `CCCc1ccc2c(n1)Oc1ccc(C(C)C(=O)O)cc1C2` (configuration not stated) gave an IC50 of more than 100000 nM. The logD in series [2] was found to be 1.08.

In the case of `CC(C(=O)O)c1ccc2c(c1)Cc1cccnc1O2` (configuration not stated) [PRANOPROFEN], the concentration for half-maximal inhibition (IC50) in series [1] was determined as 3100 nM; in series [3], 390 nM. The compound further returned a logD in series [2] of -0.72.
